# What was measured:
# Test in all cases: Test D pre-/postemergence plant response
# Format in all cases: in vivo
# [1] = system: signalgrass (broadleaf signalgrass, Brachiaria platyphylla)
# Outline: (§1)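 Seeds in loam–sand blend treated preemergence, and plants at 1- to 4-leaf stage (2–18 cm) treated postemergence, with compounds in non-phytotoxic solvent with surfactant. Greenhouse for 14–21 days, then visual rating against controls, 0 (no effect) to 100 (complete control).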
# [2] = system: green foxtail (Setaria viridis)
# Outline: as §1
# [3] = system: nutsedge (purple nutsedge, Cyperus rotundus)
# Outline: as §1
# [4] = system: mallow (common mallow, Malva sylvestris)
# Outline: as §1
# [5] = system: goosegrass (Eleusine indica)
# Outline: as §1
# [6] = system: purslane (common purslane, Portulaca oleracea)
# Outline: as §1
# [7] = system: quackgrass (Elytrigia repens)
# Outline: as §1
# [8] = system: itchgrass (Rottboellia cochinchinensis)
# Outline: as §1
# [9] = system: bluegrass (annual bluegrass, Poa annua)
# Outline: as §1
# [10] = system: johnsongrass (Sorghum halepense)
# Outline: as §1
# [11] = system: guineagrass (Panicum maximum)
# Outline: as §1
# [12] = system: dallisgrass (Paspalum dilatatum)
# Outline: as §1
# [13] = system: Russian thistle (Salsola kali)
# Outline: as §1
# [14] = system: sowthistle (common sowthistle, Sonchus oleraceous)
# Outline: as §1
# [15] = system: barnyardgrass (Echinochloa crus-galli)
# Outline: as §1
# [16] = system: ragweed (common ragweed, Ambrosia elatior)
# Outline: as §1
# [17] = Postemergence, 16 g ai/ha, scale 0 to 100
# [18] = Postemergence, 31 g ai/ha, scale 0 to 100
# [19] = Postemergence, 125 g ai/ha, scale 0 to 100 (0 no effect, 100 complete control)
# [20] = Postemergence, 62 g ai/ha, scale 0 to 100 (0 no effect, 100 complete control)
# [21] = Preemergence, 16 g ai/ha, scale 0 to 100, 0 no effect, 100 complete control
# [22] = Preemergence, 31 g ai/ha, scale 0 to 100 (0 no effect, 100 complete control)
# [23] = Preemergence, 125 g ai/ha, scale 0 to 100
# [24] = Preemergence, 62 g ai/ha, scale 0 to 100
# [25] = Postemergence, 31 g ai/ha, scale 0 to 100 (0 no effect, 100 complete control)
structure (smiles),measurement,setting,value
"Cc1c(F)cccc1-n1c(-c2ccccc2)ncc(C(=O)C2=C(O)CCCC2=O)c1=O [Compound 47, 3-(3-fluoro-2-methylphenyl)-5-[(2-hydroxy-6-oxo-1-cyclohexen-1-yl)carbonyl]-2-phenyl-4(3H)-pyrimidinone]","Plant response rating, Signalgrass",[1]; [17],0
same,"Plant response rating, Signalgrass",[1]; [18],5
same,"Plant response rating, Signalgrass",[1]; [19],20
same,"Plant response rating, Signalgrass",[1]; [20],15
same,"Plant response rating, Signalgrass",[1]; [21],0
same,"Plant response rating, Signalgrass",[1]; [22],0
same,"Plant response rating, Signalgrass",[1]; [23],90
same,"Plant response rating, Foxtail, Green",[2]; [17],5
same,"Plant response rating, Foxtail, Green",[2]; [18],35
same,"Plant response rating, Foxtail, Green",[2]; [19],95
same,"Plant response rating, Foxtail, Green",[2]; [20],50
same,"Plant response rating, Foxtail, Green",[2]; [21],0
same,"Plant response rating, Foxtail, Green",[2]; [22],0
same,"Plant response rating, Foxtail, Green",[2]; [24],0
same,"Plant response rating, Foxtail, Green",[2]; [23],0
same,"Plant response rating, Nutsedge, Purple",[3]; [17],0
same,"Plant response rating, Nutsedge, Purple",[3]; [18],0
same,"Plant response rating, Nutsedge, Purple",[3]; [19],20
same,"Plant response rating, Nutsedge, Purple",[3]; [20],10
same,"Plant response rating, Nutsedge, Purple",[3]; [21],0
same,"Plant response rating, Nutsedge, Purple",[3]; [22],0
same,"Plant response rating, Nutsedge, Purple",[3]; [24],10
same,"Plant response rating, Nutsedge, Purple",[3]; [23],35
same,"Plant response rating, Mallow",[4]; [17],35
same,"Plant response rating, Mallow",[4]; [18],50
same,"Plant response rating, Mallow",[4]; [19],65
same,"Plant response rating, Mallow",[4]; [20],65
same,"Plant response rating, Mallow",[4]; [21],0
same,"Plant response rating, Mallow",[4]; [22],0
same,"Plant response rating, Mallow",[4]; [24],65
same,"Plant response rating, Mallow",[4]; [23],98
same,"Plant response rating, Goosegrass",[5]; [17],40
same,"Plant response rating, Goosegrass",[5]; [18],65
same,"Plant response rating, Goosegrass",[5]; [19],65
same,"Plant response rating, Goosegrass",[5]; [20],65
same,"Plant response rating, Goosegrass",[5]; [21],0
same,"Plant response rating, Goosegrass",[5]; [22],0
same,"Plant response rating, Goosegrass",[5]; [24],5
same,"Plant response rating, Goosegrass",[5]; [23],75
same,"Plant response rating, Purslane",[6]; [17],20
same,"Plant response rating, Purslane",[6]; [18],20
same,"Plant response rating, Purslane",[6]; [19],30
same,"Plant response rating, Purslane",[6]; [20],30
same,"Plant response rating, Purslane",[6]; [21],0
same,"Plant response rating, Purslane",[6]; [22],0
same,"Plant response rating, Purslane",[6]; [24],95
same,"Plant response rating, Purslane",[6]; [23],100
same,"Plant response rating, Quackgrass",[7]; [17],0
same,"Plant response rating, Quackgrass",[7]; [18],0
same,"Plant response rating, Quackgrass",[7]; [19],5
same,"Plant response rating, Quackgrass",[7]; [20],0
same,"Plant response rating, Quackgrass",[7]; [21],0
same,"Plant response rating, Quackgrass",[7]; [22],0
same,"Plant response rating, Quackgrass",[7]; [23],0
same,"Plant response rating, Itchgrass",[8]; [17],0
same,"Plant response rating, Itchgrass",[8]; [18],5
same,"Plant response rating, Itchgrass",[8]; [19],10
same,"Plant response rating, Itchgrass",[8]; [20],5
same,"Plant response rating, Itchgrass",[8]; [21],0
same,"Plant response rating, Itchgrass",[8]; [22],0
same,"Plant response rating, Itchgrass",[8]; [24],0
same,"Plant response rating, Itchgrass",[8]; [23],0
same,"Plant response rating, Bluegrass",[9]; [17],0
same,"Plant response rating, Bluegrass",[9]; [25],0
same,"Plant response rating, Bluegrass",[9]; [19],0
same,"Plant response rating, Bluegrass",[9]; [20],0
same,"Plant response rating, Bluegrass",[9]; [21],0
same,"Plant response rating, Bluegrass",[9]; [22],0
same,"Plant response rating, Bluegrass",[9]; [24],0
same,"Plant response rating, Bluegrass",[9]; [23],35
same,"Plant response rating, Johnsongrass",[10]; [17],5
same,"Plant response rating, Johnsongrass",[10]; [18],15
same,"Plant response rating, Johnsongrass",[10]; [19],65
same,"Plant response rating, Johnsongrass",[10]; [20],35
same,"Plant response rating, Johnsongrass",[10]; [21],0
same,"Plant response rating, Johnsongrass",[10]; [22],0
same,"Plant response rating, Johnsongrass",[10]; [24],0
same,"Plant response rating, Johnsongrass",[10]; [23],75
same,"Plant response rating, Guineagrass",[11]; [17],10
same,"Plant response rating, Guineagrass",[11]; [18],20
same,"Plant response rating, Guineagrass",[11]; [19],30
same,"Plant response rating, Guineagrass",[11]; [20],20
same,"Plant response rating, Guineagrass",[11]; [21],0
same,"Plant response rating, Guineagrass",[11]; [22],0
same,"Plant response rating, Guineagrass",[11]; [24],0
same,"Plant response rating, Guineagrass",[11]; [23],0
same,"Plant response rating, Dallisgrass",[12]; [17],5
same,"Plant response rating, Dallisgrass",[12]; [18],10
same,"Plant response rating, Dallisgrass",[12]; [19],15
same,"Plant response rating, Dallisgrass",[12]; [20],15
same,"Plant response rating, Dallisgrass",[12]; [21],0
same,"Plant response rating, Dallisgrass",[12]; [22],25
same,"Plant response rating, Dallisgrass",[12]; [24],65
same,"Plant response rating, Dallisgrass",[12]; [23],75
same,"Plant response rating, Russian Thistle",[13]; [17],20
same,"Plant response rating, Russian Thistle",[13]; [20],20
same,"Plant response rating, Russian Thistle",[13]; [21],0
same,"Plant response rating, Russian Thistle",[13]; [23],100
same,"Plant response rating, Sowthistle",[14]; [17],90
same,"Plant response rating, Sowthistle",[14]; [18],100
same,"Plant response rating, Sowthistle",[14]; [19],100
same,"Plant response rating, Sowthistle",[14]; [20],100
same,"Plant response rating, Sowthistle",[14]; [21],65
same,"Plant response rating, Sowthistle",[14]; [22],65
same,"Plant response rating, Sowthistle",[14]; [23],100
same,"Plant response rating, Barnyardgrass",[15]; [17],70
same,"Plant response rating, Barnyardgrass",[15]; [25],70
same,"Plant response rating, Barnyardgrass",[15]; [19],70
same,"Plant response rating, Barnyardgrass",[15]; [20],70
same,"Plant response rating, Barnyardgrass",[15]; [21],0
same,"Plant response rating, Barnyardgrass",[15]; [22],0
same,"Plant response rating, Barnyardgrass",[15]; [24],5
same,"Plant response rating, Barnyardgrass",[15]; [23],5
same,"Plant response rating, Ragweed",[16]; [17],75
same,"Plant response rating, Ragweed",[16]; [18],75
same,"Plant response rating, Ragweed",[16]; [19],95
same,"Plant response rating, Ragweed",[16]; [20],80
same,"Plant response rating, Ragweed",[16]; [21],0
same,"Plant response rating, Ragweed",[16]; [22],50
same,"Plant response rating, Ragweed",[16]; [23],100

# Reference: US8952024B2, “Herbicidal pyrimidone derivatives” (E I du Pont de Nemours and Company, priority 2009, dated 2015)
